Results published in PMC5854708, “Grass Carp Prolactin Gene: Structural Characterization and Signal Transduction for PACAP-induced Prolactin Promoter Activity” (Scientific Reports, 2018).
Like-named read-outs stand apart in the source and are kept apart here.

Key:
[1] = test system: grass carp PRL promoter (pPRL(−1156).Luc) in αT3-1 cells; format: cell-based, grass carp (promoter); rat (αT3-1 cells, as printed); settings: for effect on Forskolin-induced luciferase activity: Forskolin 100 nM
Protocol: The cells were then cultured for 18 hr recovery before drug treatment. (A) Time course analysis on the effect of oPACAP38 (6–48 hrs) on grass carp PRL promoter activity in αT3-1 cells. (B) αT3-1 cells over-expressed pPRL(−1156).LUC were treated for 24 hrs with increasing doses of oPACAP38. Effects of PACAP and VIP antagonists on PACAP-induced PRL mRNA expression were also investigated. In these experiments, αT3-1 cells over-expressed pPRL(−1156).LUC were challenged with oPACAP38 (10 nM, 24 hr) in the presence or absence of (C) the PACAP antagonist PACAP6-38 (10 nM) or (D) VIP antagonist (4-Cl-D-Phe6, Leu17)VIP (“VIP-R antagonist”, 100 nM).
After 18 h recovery, the cells were incubated with respective drugs. (A) αT3-1 cells over-expressed pPRL(−1156).LUC were treated for 24 hrs with increasing doses of cpt-cAMP (1–100 μM). (B) αT3-1 cells over-expressed pPRL(−1156).LUC were treated for 24 hrs with increasing doses of Forskolin (10–1000 nM). Effects of cAMP/PKA inhibitors on PACAP-induced PRL mRNA expression were then investigated. αT3-1 cells over-expressed pPRL(−1156).LUC were challenged with oPACAP38 (10 nM, 24 hr) in the presence or absence of (C) AC inhibitor MDL12330A (10 μM) or (D) PKA blocker H89 (10 μM).
After 18 h recovery, the cells were incubated with respective drugs. The cells were treated for 24 hr with increasing doses of (A) Ca^2+ ionophore A23187 or (B) L-type VSCC activator Bay K8644. Inhibiting extracellular Ca^2+ entry on PRL mRNA expression in carp pituitary cells was examined. In this study, αT3-1 cells over-expressed pPRL(−1156).LUC were treated with (C) oPACAP38 (10 nM, 24 hrs) or (D) Forskolin (100 nM, 24 hrs) in the Ca^2+-free medium (with different doses of EGTA).
After 18 h recovery, the cells were incubated with respective drugs.

[2] = test system: PRL gene expression in GH4C1 cells; settings: cited from earlier work
From the text: (§1) PACAP and vasoactive intestinal peptide (VIP) are members of the glucagon/secretin peptide family and have been reported to play roles in PRL regulation. […] In contrast to VIP, the biological actions of PACAP on ...

[3] = test system: PRL secretion / PRL gene expression; settings: mammals, cited from earlier work
From the text: as §1

PAC1 receptors = settings: cited from earlier work
From the text: as §1

[4] = test system: PRL promoter / PRL transcript; set-up: method as in PMID 17904137; settings: goldfish; cited from earlier work
From the text: (§2) Prolactin (PRL) is a pituitary hormone with diverse function. […] In mammals, transcription of PRL gene is regulated by multiple factors. […] Furthermore, sex steroid ...

PRL promoter = test system: PRL promoter; set-up: method as in 2 sources, one per row (each row's own in cited_ref): ref 2 = [2]; PMID 15731170; doi:10.1210/me.2004-0111; 2. Liu, J. C., Baker, R. E., Chow, W., Sun, C. K. & Elsholtz, H. P. Epigenetic mechanisms in the dopamine D2 receptor-dependent inhibition of the prolactin gene. Mol Endocrinol 19 , 1904–1917, doi:10. ||| ref 3 = [3]; PMID 1922085; doi:10.1210/mend-5-4-535; 3. Yan GZ Pan WT Bancroft C Thyrotropin-releasing hormone action on the prolactin promoter is mediated by the POU protein pit-1 Mol Endocrinol 1991 5 535 541 10.1210/mend-5-4-535 1922085; settings: mammals, cited from earlier work
From the text: as §2

PRL gene transcription = test system: PRL gene transcription; set-up: method as in PMID 18006630, PMID 18022314; settings: human; cited from earlier work
From the text: as §2

[5] = 24-hr, A23187 1–100 nM or Bay K8644 1–100 nM, n = 4
[6] = 24 hr, MDL12330A 10 μM or H89 10 μM, n = 4
[7] = oPACAP38 10 nM, 24 hr, MDL12330A 10 μM or H89 10 μM, n = 4
[8] = LY294002 10 μM or Wortmannin 10 nM, n = 4
[9] = W7 30 μM or W13 100 μM, pre-treated 15 mins, PACAP 100 nM (Supplementary Fig. 4), 24 hours, n = 4
[10] = calmidazolium 1 μM, W7 30 μM, W13 100 μM or KN62 5 μM, n = 4
[11] = U0126, PD169316 or SP600125, each 10 μM, n = 4
[12] = U0126, PD169316 or SP600125, each 10 μM, oPACAP38 10 nM, 24 hrs, n = 4
[13] = calmidazolium 1 μM or KN62 5 μM, oPACAP38 10 nM, 24 hrs, n = 4

## CNc1ccc2oc(C[C@H]3O[C@@]4(CC[C@H]3C)O[C@H]([C@H](C)C(=O)c3ccc[nH]3)[C@H](C)C[C@H]4C)nc2c1C(=O)O [A23187]
[1]; [5]
  effect on luciferase activity expression: effective in stimulating luciferase activity expression

## O=S(=O)(NCCNC/C=C/c1ccc(Br)cc1)c1cccc2cnccc12 [H89]
[1]; [6]
  effect on basal luciferase activity: markedly suppressed
[1]; [7]
  effect on oPACAP38-induced luciferase activity: totally abolished

## Cl.c1ccc(C2CCCC2NC2=NCCCCCCCCCCC2)cc1 (centres unmarked) [MDL12330A]
[1]; [6]
  effect on basal luciferase activity: markedly suppressed
[1]; [7]
  effect on oPACAP38-induced luciferase activity: totally abolished

## O=c1cc(N2CCOCC2)oc2c(-c3ccccc3)cccc12 [LY294002]
[1]; [8]
  effect on basal luciferase activity: effective in reducing
[1]; LY294002 10 μM, pre-treated 15 mins, PACAP 100 nM (Supplementary Fig. 4), 24 hours, n = 4
  effect on PACAP-induced luciferase activity: effective in reducing

## CCCCCCCCCCCCCCCCCCOCC(COP(=O)([O-])OCC[N+](C)(C)C)OC (centres unmarked) [Edelfosine]
[1]; Edelfosine 20 μM or 2-APB 100 μM, oPACAP38 10 nM, 24 hrs, n = 4
  effect on PACAP-stimulated luciferase activity: effectively abolished

## NCCCCNS(=O)(=O)c1ccc2c(Cl)cccc2c1 [W13]
[1]; [9]
  effect on PACAP-stimulated luciferase activity: suppressed/totally inhibited
[1]; [10]
  effect on basal luciferase activity: suppressed/totally inhibited

## COc1ccc2c(c1)CC[C@@H]1[C@@H]2CC[C@]2(C)[C@@H](NCCCCCCN3C(=O)C=CC3=O)CC[C@@H]12 [U73122]
[1]; U73122 10 μM, pre-treated 15 mins, PACAP 100 nM (Supplementary Fig. 4), 24 hours, n = 4
  effect on PACAP-stimulated luciferase activity: effectively abolished

## COC(=O)C1=C(C)NC(C)=C(C(=O)OC)C1c1ccccc1[N+](=O)[O-] [nifedipine]
[1]; nifedipine 10 μM, 24 hrs, n = 4
  effect on Forskolin-induced luciferase activity: effective in attenuating
[1]; nifedipine 10 μM, oPACAP38 10 nM, 24 hrs, n = 4
  effect on PACAP-induced luciferase activity: effective in attenuating

## vasoactive intestinal peptide [VIP]
[2]
  effect on PRL gene expression: stimulatory effects
[3]; ref 8
  effect on PRL secretion: stimulatory effects
[3]; ref 9
  effect on PRL gene expression: stimulatory effects
PAC1 receptors
  affinity/specificity at PAC1 receptors: little/very low affinity

## COC[C@H]1OC(=O)c2coc3c2[C@@]1(C)C1=C(C3=O)[C@@H]2CCC(=O)[C@@]2(C)C[C@H]1OC(C)=O [Wortmanin]
[1]; [8]
  effect on basal luciferase activity: effective in reducing
[1]; Wortmannin 10 nM, oPACAP38 10 nM, 24 hrs, n = 4
  effect on PACAP-induced luciferase activity: effective in reducing

## NCCOB(c1ccccc1)c1ccccc1 [2-APB, 2-aminoethoxydiphenyl borate]
[1]
  effect on PACAP-stimulated luciferase activity: effectively abolished

## NCCc1ccc(O)c(O)c1 [Dopamine]
[4]
  effect on PRL promoter activity: inhibition of PRL promoter activity
PRL promoter; via dopamine D2 receptor activation
  effect on PRL promoter activity: inhibitory effect on PRL promoter activity

## N#CC(=C(/N)Sc1ccccc1N)/C(C#N)=C(/N)Sc1ccccc1N [U0126]
[1]; [11]
  effect on basal luciferase activity: not affected
[1]; [12]
  effect on PACAP-induced luciferase activity: not affected

## NCCCCCCNS(=O)(=O)c1cccc2c(Cl)cccc12 [W7]
[1]; [9]
  effect on PACAP-stimulated luciferase activity: suppressed/totally inhibited
[1]; [10]
  effect on basal luciferase activity: suppressed/totally inhibited

## Clc1ccc(C(c2ccc(Cl)cc2)n2cc[n+](CC(OCc3ccc(Cl)cc3Cl)c3ccc(Cl)cc3Cl)c2)cc1 (centres unmarked) [calmidazolium]
[1]; [13]
  effect on PACAP-stimulated luciferase activity: suppressed/totally inhibited
[1]; [10]
  effect on basal luciferase activity: suppressed/totally inhibited

## C=C[C@@]1(C)CC(=O)[C@]2(O)[C@@]3(C)[C@@H](O)CCC(C)(C)[C@@H]3[C@H](O)[C@H](OC(C)=O)[C@@]2(C)O1 [Forskolin]
[1]; 24 hrs, Forskolin 10–1000 nM, n = 4
  effect on luciferase activity expression: dose-dependently increased

## PACAP6–38
[1]; oPACAP38 10 nM, 24 hr, antagonist PACAP6–38 100 nM (text; legend: 10 nM), n = 4
  effect on oPACAP38-induced PRL promoter activity: blocked

## O=C(O)CN(CCOCCOCCN(CC(=O)O)CC(=O)O)CC(=O)O [EGTA]
[1]; EGTA 1–4 mM, Ca^2+-free medium, 24 hrs, n = 4
  effect on Forskolin-induced luciferase activity: suppressed dose-dependently
[1]; EGTA 1–4 mM, Ca^2+-free medium, oPACAP38 10 nM, 24 hrs, n = 4
  effect on PACAP-induced luciferase activity: suppressed dose-dependently

## CN(C)CCCn1cc(C2=C(c3c[nH]c4ccccc34)C(=O)NC2=O)c2ccccc21 [GF109203]
[1]; GF109203 1 μM, oPACAP38 10 nM, 24 hrs, n = 4
  effect on PACAP-induced luciferase activity: not effective in altering PACAP induction

## thyrotropin-releasing hormone [TRH]
[4]
  effect on PRL promoter activity: suppressed
  effect on PRL transcript expression: suppressed
PRL promoter; via pit-1 transactivation
  effect on PRL promoter: stimulate PRL promoter

## CN([C@@H](Cc1ccc(OS(=O)(=O)c2cccc3cnccc23)cc1)C(=O)N1CCN(c2ccccc2)CC1)S(=O)(=O)c1cccc2cnccc12 [KN62]
[1]; [13]
  effect on PACAP-stimulated luciferase activity: suppressed/totally inhibited
[1]; [10]
  effect on basal luciferase activity: suppressed/totally inhibited

## estrogen
PRL gene transcription
  effect on PRL gene transcription: potent stimulator for PRL gene transcription

## Oc1c2ccccc2c2c3c(cccc13)N=N2 [SP600125]
[1]; [11]
  effect on basal luciferase activity: not affected
[1]; [12]
  effect on PACAP-induced luciferase activity: not affected

## Nc1ncnc2c1nc(Sc1ccc(Cl)cc1)n2C1OC2COP(=O)(O)OC2C1O (centres unmarked) [cpt-cAMP, 8-(4-chlorophenylthio)-cAMP]
[1]; 24 hrs, cpt-cAMP 1–100 μM, n = 4
  effect on luciferase activity expression: dose-dependently increased

## CO[C@H]1C[C@@H]2CC[C@@H](C)[C@@](O)(O2)C(=O)C(=O)N2CCCC[C@H]2C(=O)O[C@H]([C@H](C)C[C@@H]2CC[C@@H](O)[C@H](OC)C2)CC(=O)[C@H](C)/C=C(\C)[C@@H](O)[C@@H](OC)C(=O)[C@H](C)C[C@H](C)/C=C/C=C/C=C/1C [rapamycin]
[1]; rapamycin 20 nM, oPACAP38 10 nM, 24 hrs, n = 4
  effect on PACAP-induced luciferase activity: attenuated

## COC(=O)C1=C(C)NC(C)=C([N+](=O)[O-])C1c1ccccc1C(F)(F)F (centres unmarked) [Bay K8644]
[1]; [5]
  effect on luciferase activity expression: effective in stimulating luciferase activity expression
